# According to patent US4906638A (priority 1987, dated 1990):
# “Also recorded” adds a separate entry of the source. Where two headings read alike, the source gives them in different places.
# Assays:
# [1] = system: [^3 H]dextromethorphan receptor; details: cited from earlier work; for effect on [^3 H]dextromethorphan binding / binding to the dextromethorphan site (in words): central nervous system site; for IC50: read-out: IC50, inhibition of [^3 H]dextromethorphan binding, in vitro
# [2] = rats, dogs and humans; cited from earlier work
# [3] = system: N-methyl-D-aspartate-induced seizures; experiment: N-methyl-D-aspartate (NMDA) induced convulsions in mice; assay type: in vivo, mice (male CF-1); details: for % Protected: 30 min before NMDA 250 mg/kg; for protection against N-methyl-D-asparate-induced seizures (in words): i.p.
# Description: When mice (male CF-1; 25-30 g) are administered NMDA (250 mg/kg; IP) animals typically respond with seizure activity consisting of an initial staring, followed in rapid order by hindlimb scratching, increased locomotor activity, rearing behavior, clonic seizures, tonic extension and death.
# All drugs were dissolved in saline (0.9%; w/v) and delivered by intraperitoneal injection in a volume of 1.0% (w/v) of body weight.
# [4] = system: maximal electroshock induced seizures; experiment: maximal electroshock (MES) induced seizures in mice (Example II); assay type: in vivo, mice (male CF-1); details: for % Protected: 30 min before testing
# Description: All drugs were dissolved in saline (0.9%; w/v) and delivered intraperitoneally in a volume equal to 1 percent of body weight. Animals failing to show tonic hindlimb extension were scored as protected from MES-induced convulsions.
# [5] = system: maximal electroshock seizures (tonic hindlimb extension); experiment: maximal electroshock (MES) procedure for mice, transauricular (Example I); assay type: in vivo; details: for mice protected: 500 mg/kg i.p.
# Description: For combination studies two separate injections were administered. […] The absence of tonic hindlimb extension was taken as evidence for seizure protection.
# [6] = observed signs of toxicity in mice after ethosuximide; assay type: in vivo; details: 500 mg/kg i.p.
# [7] = system: CNS side effects (rotorod ataxia); experiment: rotorod-ataxia toxicity test (CNS side effects); details: maximal therapeutic dose of dextromethorphan
# Source text: Mice that were unable to maintain equilibrium for one continuous minute, given 3 opportunities were scored as ataxic.
# [8] = system: [^3 H]TCP-labeled-NMDA-linked receptor; details: cited from earlier work
# [9] = system: transauricular maximal electroshock seizure (MES); details: cited from earlier work
# [10] = system: calcium-induced spasms in smooth muscle; details: cited from earlier work
# [11] = following 20 to 60 mg dextromethorphan p.o. in humans; cited from earlier work
structure (smiles),measurement,setting,value
CCN(CC)CCOC(=O)C1(c2ccccc2)CCCC1 [caramiphen],effect on [^3 H]dextromethorphan binding / binding to the dextromethorphan site (in words),[1],bind to the same central nervous system site
same,IC50,[1],1 to 75 nM
CN1CC[C@@]23CCCC[C@@H]2[C@@H]1Cc1ccc(O)cc13 [dextrorphan],ratio of dextrorphan to dextromethorphan in plasma and urine,[2],exceeds 100 to 1
c1ccc(C2(c3ccccc3)OC[C@H]([C@@H]3CCCCN3)O2)cc1 [dexoxadrol],effect on [^3 H]dextromethorphan binding / binding to the dextromethorphan site (in words),[1],do not inhibit or enhance binding
OCCN1CCN(CCCN2c3ccccc3C=Cc3ccccc32)CC1 [opipramol],effect on [^3 H]dextromethorphan binding / binding to the dextromethorphan site (in words),[1],bind to the same central nervous system site
CN1[C@@H]2CC[C@H]1C[C@@H](OC(c1ccccc1)c1ccccc1)C2 [benztropine],effect on [^3 H]dextromethorphan binding / binding to the dextromethorphan site (in words),[1],bind to the same central nervous system site
CCN(CC)CCOCCOC(=O)C1(c2ccccc2)CCCC1 [carbetapentane],effect on [^3 H]dextromethorphan binding / binding to the dextromethorphan site (in words),[1],bind to the same central nervous system site
same,IC50,[1],1 to 75 nM
OCCN1CCN(CCCN2c3ccccc3Sc3ccc(C(F)(F)F)cc32)CC1 [fluphenazine],effect on [^3 H]dextromethorphan binding / binding to the dextromethorphan site (in words),[1],bind to the same central nervous system site
Nc1ccccc1 [phenylamine],effect on [^3 H]dextromethorphan binding / binding to the dextromethorphan site (in words),[1],bind to the same central nervous system site
CC(CN1c2ccccc2Sc2ccccc21)N(C)C (centres unmarked) [promethazine],effect on [^3 H]dextromethorphan binding / binding to the dextromethorphan site (in words),[1],bind to the same central nervous system site
"O=C(O)C1CN(CCCP(=O)(O)O)CCN1 (centres unmarked) [CPP, 3-(2-carboxypiperazin-4-yl)propyl-1-phosphono acid]",% Protected,[3]; CPP 1.5 mg/kg i.p. alone,12.5%
same,% Protected,[3]; CPP 2.0 mg/kg i.p. alone,37.5%
same,protection against N-methyl-D-asparate-induced seizures (in words),[3],afforded protection
same,% Protected,[4]; CPP 5 mg/kg i.p. alone,25%
same,% Protected,[4]; CPP 10 mg/kg i.p. alone,60%
CN1C(=O)CN=C(c2ccccc2)c2cc(Cl)ccc21 [diazepam],effect on [^3 H]dextromethorphan binding / binding to the dextromethorphan site (in words),[1],do not inhibit or enhance binding
CCC1(C)CC(=O)NC1=O (centres unmarked) [Ethosuximide],mice protected,[5]; at one half hour,one in five
same,mice protected,[5]; one hour after injection,none
same,"signs of sedation, ataxia and gross toxicity",[6],"all mice injected showed signs of sedation, ataxia and gross toxicity"
C(=C\c1ccccc1)/CN1CCN(C(c2ccccc2)c2ccccc2)CC1 [cinnarizine],effect on [^3 H]dextromethorphan binding / binding to the dextromethorphan site (in words),[1],bind to the same central nervous system site
CN1CCN(CCCN2c3ccccc3Sc3ccc(Cl)cc32)CC1 [prochlorperazine],effect on [^3 H]dextromethorphan binding / binding to the dextromethorphan site (in words),[1],bind to the same central nervous system site
CN1CCN(CCCN2c3ccccc3Sc3ccc(C(F)(F)F)cc32)CC1 [trifluorperazine],effect on [^3 H]dextromethorphan binding / binding to the dextromethorphan site (in words),[1],bind to the same central nervous system site
CNC1(c2ccccc2Cl)CCCCC1=O (centres unmarked) [ketamine],effect on [^3 H]dextromethorphan binding / binding to the dextromethorphan site (in words),[1],do not inhibit or enhance binding
c1ccc(C2(N3CCCCC3)CCCCC2)cc1 [phencyclidine],effect on [^3 H]dextromethorphan binding / binding to the dextromethorphan site (in words),[1],do not inhibit or enhance binding
CN(C)CCCN1c2ccccc2Sc2ccc(Cl)cc21 [chlorpromazine],effect on [^3 H]dextromethorphan binding / binding to the dextromethorphan site (in words),[1],bind to the same central nervous system site
OCCN1CCN(CC/C=C2/c3ccccc3Sc3ccc(C(F)(F)F)cc32)CC1 [flupenthinol],effect on [^3 H]dextromethorphan binding / binding to the dextromethorphan site (in words),[1],bind to the same central nervous system site
O=C(OCCOCCN1CCCCC1)N1c2ccccc2Sc2cccnc21 [pipazethate],effect on [^3 H]dextromethorphan binding / binding to the dextromethorphan site (in words),[1],bind to the same central nervous system site
OCCN1CCN(CCCN2c3ccccc3Sc3ccc(Cl)cc32)CC1 [perphenazine],effect on [^3 H]dextromethorphan binding / binding to the dextromethorphan site (in words),[1],bind to the same central nervous system site
CC(CN(C)C)CN1c2ccccc2Sc2ccccc21 (centres unmarked) [trimeprazine],effect on [^3 H]dextromethorphan binding / binding to the dextromethorphan site (in words),[1],bind to the same central nervous system site
COc1ccc2c(c1)[C@]13CCCC[C@@H]1[C@H](C2)N(C)CC3 [dextromethorphan],% Mice Protected,[5]; 0 mg/kg CBM + 10 mg/kg DM (DM alone),0%
same,% Mice Protected,[5]; 0 mg/kg CBM + 20 mg/kg DM (DM alone),8%
same,protection when administered alone (in words),"[5]; 10 and 20 mg/kg, with 0 CBM",little or no protection
same,% Protected,"[5]; DM 5 mg/kg i.p., one-half hour before MES",0%
same,% Protected,"[5]; DM 10 mg/kg i.p., one-half hour before MES",0%
same,% Protected,"[5]; DM 20 mg/kg i.p., one-half hour before MES",8%
same,% Protected,"[5]; DM 25 mg/kg i.p., one-half hour before MES",25%
same,% Protected,"[5]; DM 30 mg/kg i.p., one-half hour before MES",37.5%
same,% Protected,"[5]; DM 35 mg/kg i.p., one-half hour before MES",75%
same,% Protected,"[5]; DM 45 mg/kg i.p., one-half hour before MES",87.5%
same,% Protected,"[5]; DM 55 mg/kg i.p., one-half hour before MES",100%
same,ED50,"[5]; Mus musculus, ip, 0.5 h, DM alone, i.p., one-half hour before MES, range in parentheses, read-out: ED50",29.2 mg/kg
same,anticonvulsant activity (in words),"[5]; alone, i.p., one-half hour before MES",dose dependent anticonvulsant activity
same,increment in carbamazepine's CNS side effects (in words),[7],little increment in carbamazepine's CNS side effects
same,% Protected,[3]; DM 10 mg/kg i.p. alone,33%
same,protection against N-methyl-D-asparate-induced seizures (in words),[3],afforded protection
same,% Protected,[4]; DM 6.6 mg/kg i.p. alone,0%
same,% Protected,[4]; DM 10 mg/kg i.p. alone,16.6%
same,% Protected,[4]; DM 27 mg/kg i.p. alone,50%
same,% Protected,[4]; DM 30 mg/kg i.p. alone,66.6%
same,effect of dextromethorphan on anticonvulsant activity of CPP (in words),[4]; low vs higher doses of dextromethorphan combined with CPP,"readily apparent only when low doses of dextromethorphan were administered in combination with anticonvulsant doses of CPP; also recorded: higher doses of dextromethorphan were either ineffective to increase the anticonvulsant activity of CPP or, partially attenuated the activity"
same,Kd,"[1]; read-out: Kd, high affinity binding of [^3 H]dextromethorphan, homogenates of guinea pig, rat and mouse lower brainstem",< 20 nM
same,binding at phencyclidine-labeled/N-methyl-D-asparate linked receptors (in words),[8],bind at phencyclidine-labeled/N-methyl-D-asparate linked receptors
same,protection against transauricular maximal electroshock seizure (in words),"[9]; 30 mg/kg, by itself",provide protection against transauricular maximal electroshock seizure (MES)
same,protection time against MES compared with dilantin (in words),[9]; standard testing conditions,somewhat longer protection time against MES than that exhibited by dilantin
same,block of calcium-induced spasms in smooth muscle (in words),[10],block calcium-induced spasms in smooth muscle
same,absolute plasma levels,[11],five
CCC1(c2ccccc2)C(=O)NC(=O)NC1=O [phenobarbital],effect on [^3 H]dextromethorphan binding / binding to the dextromethorphan site (in words),[1],do not inhibit or enhance binding
CN(C)CCOCCOC(=O)N1c2ccccc2Sc2ccccc21 [dimethoxanate],effect on [^3 H]dextromethorphan binding / binding to the dextromethorphan site (in words),[1],bind to the same central nervous system site
same,IC50,[1],1 to 75 nM
COc1ccc2c(c1OC)C(=O)O[C@@H]2[C@H]1c2c(cc3c(c2OC)OCO3)CCN1C [noscapine],effect on [^3 H]dextromethorphan binding / binding to the dextromethorphan site (in words),[1],markedly increased
same,effect on [^3 H]dextromethorphan binding / binding to the dextromethorphan site (in words),[1]; listed as roscapine,bind to the same central nervous system site
